Columns and labels:
184B5 = assay: SRB-based cytotoxicity assay; type: cell-based; conditions: Homo sapiens; 184B5 non-cancer; SRB; Table 2
Method: (§1) For (anti)proliferation assays, 4,000-5,000 cells/well of the 96-well clustered dish were incubated for 16 hours, as described previously (Hu et al., 2008; Skehan et al., 1990). After 16 hours, culture medium was replaced with fresh medium containing different dilutions of test compounds dissolved in DMSO. Some wells were treated with 100 μl of 10% trichloroacetic acid (TCA) as a negative control and sham (medium with dimethyl sulfoxide; DMSO) treated cells were used as a positive control. After 72 hours post-incubation, medium was removed and cells were fixed with 10% TCA at 4° C. for 1 hour. TCA was removed and cells were washed with cold tap water, and plate was air-dried, followed by addition of 50 μl of 0.4% SRB staining solution to each well. After 30 minutes incubation, SRB staining solution was removed. Cells were washed with 1% acetic acid solution, and then washed with tap water to remove unbound staining solution, followed by air-drying. 200 μl of 10 mM (pH10.5) trizma base buffer was added to each well to solubilise macromolecules. SRB stained macromolecules were determined at a 540 nm wavelength using an automated plate reader (Synergy H4 Hybrid Multi-Mode Microplate Reader, BioTek, Winooski, Vt.). Cell growth (inhibition) was calculated by the following formula:
(§2) % cells proliferation=[(AT−CT)/(ST−CT)]×100
(§3) wherein AT=absorbance of treated cells, CT=absorbance of negative control cells, and ST=absorbance of sham treated cells. IC50 values were calculated from sigmoidal dose-response curves generated by two independent biological replicates, with quadruplicate in each set by using Graph Pad Prism v.5.04 software. […] The combinational index (CI) was calculated as described previously (Chou 2006). If the CI values were less than, equal to or more than 1, it indicates a synergistic, additive or antagonistic effect respectively (Chou 2006). CI values were determined from four independent experiments.

K562 = assay: SRB-based cytotoxicity assay; type: cell-based; conditions: Homo sapiens, Table 2
Method: as §1, §2, §3

[1] = system: MDA-MB-231 human metastatic breast cancer cells; assay: Anti-tumor activity in xenograft mice; type: in vivo; conditions: Tax 10 mg/kg I.V. once/week, CTR 30 mg/kg I.P. every 3 days, or Tax 5 + CTR 15 mg/kg once/week
Method: Five-week old female CD-1 and ATH490 (strain code 490) athymic nude mice were purchased from Charles River (Quebec, Canada). The MDA-MB-231 human metastatic breast cancer cells were obtained from the American Tissue Culture Collection (ATCC, Manassas, Va., USA). Cells were maintained under humidified conditions at 37° C. and 5% CO2 in DMEM high glucose medium (ATCC) supplemented with 10% fetal bovine serum and antibiotics.
For paclitaxel treatments, 40 mg/ml stock solution of paclitaxel (Sigma, MO) was prepared in DMSO. Just before administration to mice, the paclitaxel stock solution was diluted ten-fold in a buffer containing 10% DMSO, 12.5% Cremophor, 12.5% ethanol, and 65% saline-based diluent (0.9% sodium chloride, 5% polyethylene glycol, and 0.5% tween-80) which is defined as vehicle (Huang et al., 2006). Alanine transaminase (ALT, SUP6001-c)/Aspartate transaminase (AST, SUP6002-c) color endpoint assay kits were purchased from ID Labs Biotechnology (London, Ontario, Canada). Elevation of ALT and AST levels in serum samples was used as an indicator of liver damage/injury.
To determine the anti-tumor activity of CTR compounds in animals, a xenograft model of human breast cancer cells in athymic nude mice was established. Exponentially growing MDA-MB-231 metastatic breast cancer cells were harvested and counted for inoculation into mice. Each mouse was subcutaneously injected at the flank with 10×10^6 cells in 0.2 ml ice cold 1×PBS. When tumor size reached 4-5 mm in diameter (n=4-5 per group), mice were randomly assigned into several groups as described herein.
Animals were monitored for food and water consumption every day, and their body weights and tumor volumes were measured twice per week. Tumor volumes were measured with a digital caliper and were determined by using the following formula: ½ length×width^2. Blood samples were collected via cardiac puncture and processed further for ALT and AST measurements. The animals were then immediately euthanized by carbon dioxide. Tumors and vital organs (spleen, kidney, liver and lung) were collected and fixed in 10% buffered formalin at 4° C. overnight before being processed for paraffin embedding. The paraffin-embedded blocks were then cut into 4-5 μm thick sections. Each section of tumors and organs was stained with hematoxylin and eosin (H&E).

MDA-MB-231 = assay: SRB-based cytotoxicity assay; type: cell-based, human; conditions: Homo sapiens; MDA-MB-231; SRB; Table 2
Method: as §1, §2, §3

MCF-7 = assay: SRB-based cytotoxicity assay; type: cell-based, human; conditions: Homo sapiens, MCF7; MCF-7; SRB; Table 2
Method: as §1, §2, §3

MDA-MB-468 = assay: SRB-based cytotoxicity assay; type: cell-based, human; conditions: Homo sapiens; MDA-MB-468; SRB; Table 2
Method: as §1, §2, §3

H69AR = assay: SRB-based cytotoxicity assay; type: cell-based, human; conditions: H69AR versus SW-1271
Method: (§4) 1845B5 and MCF-10A non-cancer breast cell lines were cultured in DME/F12 medium supplemented with 10% fetal bovine serum, antibiotics and growth factors. […] The human small cell lung carcinoma H69 cell line and its multidrug-resistant MRP1-overexpressing isogenic H69AR cell line were purchased from ATCC. […] H69 cells grow as large multi-cell aggregates, making it difficult to accurately count cell numbers. […] The IL-6 dependent bortezomib-resistant ANBL6-BR cell line was further supplemented with 1 ng/ml of IL-6. The MCF10AT1 and MCF10CA1a cell lines are isogenic to the MCF10A cell line, and obtained from Dr. Valerie Weaver at the Center for Bioengineering and Tissue Regeneration, UCSF, CA, USA. […] The drug-resistant cells were cultured in the absence of drug for at least one passage before carrying out experiments. All cells were maintained in a humidified incubator at 37° C. […] Cell line authentication was performed using short tandem repeat (STR) profiling. […] Some wells were treated with 100 μl of 10% trichloroacetic acid (TCA) as a negative control and sham (medium with dimethyl sulfoxide; DMSO) treated cells were used as a positive control. […] TCA was removed and cells were washed with cold tap water, and plate was air-dried, followed by addition of 50 μl of 0.4% SRB staining solution to each well. After 30 minutes incubation, SRB staining solution was removed. Cells were washed with 1% acetic acid solution, and then washed with tap water to remove unbound staining solution, followed by air-drying. 200 μl of 10 mM (pH10.5) trizma base buffer was added to each well to solubilise macromolecules. […] Cell growth (inhibition) was calculated by the following formula: % cells proliferation=[(AT-CT)/(ST-CT)]×100 wherein AT=absorbance of treated cells, CT=absorbance of negative control cells, and ST=absorbance of sham treated cells. […] CI values were determined from four independent experiments.

KB-C-1 = assay: SRB-based cytotoxicity assay; type: cell-based; conditions: Homo sapiens, KBC-1; KB-C-1, multidrug naïve
Method: as §4

KB-C-2 = assay: SRB-based cytotoxicity assay, single and combination with paclitaxel; type: cell-based, human; conditions: KB-C-2 versus KB-C-1
Method: as §4

| SMILES | IC50 (184B5) | IC50 (K562) | tumor size (volume) ([1]; Day 0) | tumor size (volume) ([1]; Day 6) | tumor size (volume) ([1]; Day 14) | tumor size (volume) ([1]; Day 17) | tumor size (volume) ([1]; Day 20) | tumor size (volume) ([1]; Day 24) | tumor size (volume) ([1]; Day 27) | tumor size (volume) ([1]; Day 30) | IC50 (MDA-MB-231) | IC50 (MCF-7) | IC50 (MDA-MB-468) | Resistance (fold) (H69AR) | IC50 (KB-C-1) | Resistance (fold) (KB-C-2) |
| --- | --- | --- | --- | --- | --- | --- | --- | --- | --- | --- | --- | --- | --- | --- | --- | --- |
| COc1ccc2cc(/C=C/C(=O)c3ccccc3OC)c(=O)[nH]c2c1 [CTR-19, (E)-7-Methoxy-3-(3-(2-methoxyphenyl)-3-oxoprop-1-enyl) quinolin-2(1H)-one] | 3940 nM | 950 ± 650 nM | 92.51 mm^3 | 84.79 mm^3 | 99.68 mm^3 | 92.27 mm^3 | 115.39 mm^3 | 124.76 mm^3 | 143.62 mm^3 | 200.77 mm^3 | 5110 nM | 1930 nM | 1910 nM |  |  |  |
| CC[C@]1(O)C[C@@H]2CN(CCc3c([nH]c4ccccc34)[C@@](C(=O)OC)(c3cc4c(cc3OC)N(C)[C@H]3[C@@](O)(C(=O)OC)[C@H](OC(C)=O)[C@]5(CC)C=CCN6CC[C@]43[C@@H]65)C2)C1 [Vinblastine, reference compound] |  |  |  |  |  |  |  |  |  |  |  |  |  | 5.82 fold | 0.61 ± 0.09 nM | 15.20 fold |
| COc1ccccc1C(=O)/C=C/c1cc2cc(C)ccc2[nH]c1=O [CTR-18, (E)-3-(3-(2-Methoxyphenyl)-3-oxoprop-1-enyl)-6-methylquinolin-2(1H)-one] | 3890 nM | 210 ± 20 nM | 92.51 mm^3 | 111.09 mm^3 | 138.10 mm^3 | 145.48 mm^3 | 166.84 mm^3 | 143.78 mm^3 | 141.52 mm^3 | 253.37 mm^3 | 930 nM | 120 nM | 80 nM |  |  |  |

From patent publication US20180344725A1, “QUINOLONE CHALCONE COMPOUNDS AND USES THEREOF” (priority 2015, published 2018)
